These results are taken from paper PMC2719696, “Kinetics and Cellular Site of Glycolipid Loading Control the Outcome of Natural Killer T Cell Activation” (Immunity, 2009).

This experiment deals with T1, mCD1d.WT (Mus musculus, UniProt P11609).
T1 construct: expressed in transfected cells; host or cells: A20 B lymphoma cells (provided by M. Kronenberg)
T1 sequence (P11609 22-336): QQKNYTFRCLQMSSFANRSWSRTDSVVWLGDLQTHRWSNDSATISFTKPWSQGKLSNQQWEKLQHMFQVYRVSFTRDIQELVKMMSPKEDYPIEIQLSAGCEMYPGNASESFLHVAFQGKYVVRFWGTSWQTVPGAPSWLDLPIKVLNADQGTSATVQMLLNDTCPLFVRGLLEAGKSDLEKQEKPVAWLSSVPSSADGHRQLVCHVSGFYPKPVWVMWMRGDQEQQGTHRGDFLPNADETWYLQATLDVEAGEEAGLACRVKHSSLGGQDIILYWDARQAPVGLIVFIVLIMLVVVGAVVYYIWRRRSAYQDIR
T1 sequence (P01887 21-119 partner): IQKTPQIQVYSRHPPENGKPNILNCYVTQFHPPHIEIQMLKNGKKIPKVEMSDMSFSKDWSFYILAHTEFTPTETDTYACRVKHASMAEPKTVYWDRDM
The experiment can be described thus: iNKT hybridoma DN3A4.1-2 stimulation with A20 cells expressing wild-type mCD1d, IL-2 release. In kind it is cell-based. Conditions: A20 B lymphoma cells expressing mCD1d.WT; compared to all Th2 cell-type cytokine-biasing analogs. On the procedure: Figure 4 Cell Surface versus Intracellular Loading of mCD1d with Different αGalCer Analogs (A) On the left, surface accumulation of CD1d-αGalCer complexes was studied with JAWS II cells harvested after incubation with the indicated glycolipids for 1, 4, or 16 hr and then stained without permeabilization with mAb L363 (red). Cells were then fixed, stained with DAPI for nuclei visualization (blue), and analyzed by confocal microscopy. On the right, the intracellular formation and trafficking of CD1d-αGalCer complexes were analyzed by treatment of JAWS II cells with αGalCer analogs for 1, 4, and 16 hr followed by fixation and permeabilization. The cells were stained for CD1d-αGalCer complexes (L363, red), late endosomes and lysosomes (anti-LAMP-1, green), and nuclei (DAPI, blue). Results are representative of three separate experiments. The scale bar represents 10 μm. […] Supernatant concentrations of IL-2 release were determined after 12 hr. […]
For in vitro stimulation, murine iNKT hybridomas at 5 × 10^4 cells/well in 96-well plates were stimulated with an equal number of either JAWS II cells or transfected A20 cells in complete medium with glycolipids for 12 hr at 37°C, and levels of murine IL-2 secretion were determined. […] Subsequently the levels of IL-4, IL-13, and IFN-γ in culture supernatants were quantified by capture ELISA. […]

Molecules are shown by their SMILES.

Regarding `CCCCCCCCCCCCCCCCCCCCCCCC(=O)NC(COC1OC(CO)C(O)C(O)C1O)C(O)C(O)CCCCCCCCCCCCCC` (centres unmarked) [αGalCer-C24:0], the “relative potency at activating iNKT cells” value is “significantly more potent”.

Turning to `CCCCCCCCCCCCCCCCCCCCCCCCCC(=O)NC(COC1OC(CO)C(O)C(O)C1O)C(O)C(O)CCCCCCCCCCCCCC` (centres unmarked) [αGalCer-C26:0, reference compound], the “relative potency at activating iNKT cells” value is reported as “significantly more potent”.
